Biological target: His6-TEV-PDGFRβ (557-1016) (Homo sapiens (Human), UniProt P09619)
Assay: PDGFRβ HTRF Assay
Assay type: biochemical
Settings: read-out: PDGFR HTRF IC50
In short: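 HTRF KinEASE-TK readout (665/620 nm ratio) of TK-biotin substrate phosphorylation by His-tagged PDGFRβ kinase domain. Enzyme and inhibitor preincubated 30 min, then ATP/substrate added for 3 h at room temperature before 60 min EDTA quench/detection.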

Sequence of His6-TEV-PDGFRβ (557-1016) (P09619 557-1016): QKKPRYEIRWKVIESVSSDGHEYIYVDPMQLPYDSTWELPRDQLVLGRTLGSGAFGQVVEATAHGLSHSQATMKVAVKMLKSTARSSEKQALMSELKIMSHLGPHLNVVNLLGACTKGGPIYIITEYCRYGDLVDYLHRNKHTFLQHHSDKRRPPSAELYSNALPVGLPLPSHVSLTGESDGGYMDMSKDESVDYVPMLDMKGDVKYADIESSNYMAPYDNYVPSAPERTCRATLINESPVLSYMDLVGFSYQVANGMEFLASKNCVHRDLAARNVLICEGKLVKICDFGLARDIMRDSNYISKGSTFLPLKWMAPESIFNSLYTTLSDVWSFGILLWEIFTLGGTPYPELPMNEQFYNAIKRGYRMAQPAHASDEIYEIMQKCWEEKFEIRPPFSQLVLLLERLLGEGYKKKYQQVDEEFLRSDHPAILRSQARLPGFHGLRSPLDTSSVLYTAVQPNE

Structure (SMILES) | IC50
Cc1ncc(NC(=O)CNCC(C)C)cc1NC(=O)c1cnn2cc(-c3cnn4c3CCC4)sc12 [Example 493, 2-(5,6-dihydro-4H-pyrrolo[1,2-b]pyrazol-3-yl)-N-(5-(2-(isobutylamino)acetamido)-2-methylpyridin-3-yl)pyrazolo[5,1-b]thiazole-7-carboxamide] | 0.2 nM
Cc1ncc(NC(=O)CN2CCC2(C)C)cc1NC(=O)c1cnn2cc(-c3cnn(C)c3)sc12 [Example 82, N-(5-(2-(2,2-dimethylazetidin-1-yl)acetamido)-2-methylpyridin-3-yl)-2-(1-methyl-1H-pyrazol-4-yl)pyrazolo[5,1-b]thiazole-7-carboxamide] | 1.6 nM
Cc1ncc(NC(=O)OC[C@@H]2CCCN2C)cc1NC(=O)c1cnn2cc(-c3cn(C)nc3C)sc12 [Example 496, (S)-(1-methylpyrrolidin-2-yl)methyl (5-(2-(1,3-dimethyl-1H-pyrazol-4-yl)pyrazolo[5,1-b]thiazole-7-carboxamido)-6-methylpyridin-3-yl)carbamate] | 0.3 nM
Cc1ncc(C(=O)NCCN2CCCC23CCC3)cc1NC(=O)c1cnn2cc(-c3cnn(C)c3)sc12 [Example 3, N-(5-((2-(5-azaspiro[3.4]octan-5-yl)ethyl)carbamoyl)-2-methylpyridin-3-yl)-2-(1-methyl-1H-pyrazol-4-yl)pyrazolo[5,1-b]thiazole-7-carboxamide] | 0.6 nM
CC[C@@H]1CN(CC(=O)Nc2cnc(C)c(NC(=O)c3cnn4cc(-c5cnn(C)c5)sc34)c2)CCO1 [Example 65, (R)—N-(5-(2-(2-ethylmorpholino)acetamido)-2-methylpyridin-3-yl)-2-(1-methyl-1H-pyrazol-4-yl)pyrazolo[5,1-b]thiazole-7-carboxamide] | 0.7 nM
Cc1ncc(NC(=O)CN2CCC(F)(F)C2)cc1NC(=O)c1cnn2cc(-c3cnn(C)c3)sc12 [Example 73, N-(5-(2-(3,3-difluoropyrrolidin-1-yl)acetamido)-2-methylpyridin-3-yl)-2-(1-methyl-1H-pyrazol-4-yl)pyrazolo[5,1-b]thiazole-7-carboxamide] | 0.3 nM
Cc1ncc(NC(=O)CN2C3CCC2COC3)cc1NC(=O)c1cnn2cc(-c3cnn(C)c3)sc12 [Example 44, N-(5-(2-(3-oxa-8-azabicyclo[3.2.1]octan-8-yl)acetamido)-2-methylpyridin-3-yl)-2-(1-methyl-1H-pyrazol-4-yl)pyrazolo[5,1-b]thiazole-7-carboxamide] | 1.3 nM
Cc1ncc(NC(=O)CN2C[C@H](C)O[C@@H](C)C2)cc1NC(=O)c1cnn2cc(-c3cnn(C)c3)sc12 [Example 52, N-(5-(2-((2S,6S)-2,6-dimethylmorpholino)acetamido)-2-methylpyridin-3-yl)-2-(1-methyl-1H-pyrazol-4-yl)pyrazolo[5,1-b]thiazole-7-carboxamide] | 0.3 nM
COCCn1cc(-c2cn3ncc(C(=O)Nc4cc(NC(=O)CCN5C[C@H]6CC[C@@H]5C6)cnc4C)c3s2)cn1 [Example 94, N-(5-(3-((1R,4S)-2-azabicyclo[2.2.1]heptan-2-yl)propanamido)-2-methylpyridin-3-yl)-2-(1-(2-methoxyethyl)-1H-pyrazol-4-yl)pyrazolo[5,1-b]thiazole-7-carboxamide] | 0.5 nM
Cc1ncc(NC(=O)CN2CCc3cccnc3C2)cc1NC(=O)c1cnn2cc(-c3cnn(C)c3)sc12 [Example 60, N-(5-(2-(5,6-dihydro-1,7-naphthyridin-7 (8H)-yl)acetamido)-2-methylpyridin-3-yl)-2-(1-methyl-1H-pyrazol-4-yl)pyrazolo[5,1-b]thiazole-7-carboxamide] | 1 nM
Cc1ncc(NC(=O)CN2Cc3ccncc3C2)cc1NC(=O)c1cnn2cc(-c3cnn(C)c3)sc12 [Example 77, N-(5-(2-(1H-pyrrolo[3,4-c]pyridin-2 (3H)-yl)acetamido)-2-methylpyridin-3-yl)-2-(1-methyl-1H-pyrazol-4-yl)pyrazolo[5,1-b]thiazole-7-carboxamide] | 1.8 nM
Cc1ncc(NC(=O)CN2CCOCC2(C)C)cc1NC(=O)c1cnn2cc(-c3cnn(C)c3)sc12 [Example 68, N-(5-(2-(3,3-dimethylmorpholino)acetamido)-2-methylpyridin-3-yl)-2-(1-methyl-1H-pyrazol-4-yl)pyrazolo[5,1-b]thiazole-7-carboxamide] | 0.8 nM
Cc1ncc(NC(=O)CN2CCc3scnc3C2)cc1NC(=O)c1cnn2cc(-c3cnn(C)c3)sc12 [Example 61, N-(5-(2-(6,7-dihydrothiazolo[4,5-c]pyridin-5 (4H)-yl)acetamido)-2-methylpyridin-3-yl)-2-(1-methyl-1H-pyrazol-4-yl)pyrazolo[5,1-b]thiazole-7-carboxamide] | 0.8 nM
Cc1ncc(NC(=O)CN2CCn3ccnc3C2)cc1NC(=O)c1cnn2cc(-c3cnn(C)c3)sc12 [Example 75, N-(5-(2-(5,6-dihydroimidazo[1,2-a]pyrazin-7 (8H)-yl)acetamido)-2-methylpyridin-3-yl)-2-(1-methyl-1H-pyrazol-4-yl)pyrazolo[5,1-b]thiazole-7-carboxamide] | 4.1 nM
Cc1ncc(NC(=O)CN2CCOC[C@@H]2C)cc1NC(=O)c1cnn2cc(-c3cnn(C)c3)sc12 [Example 74, (S)-2-(1-methyl-1H-pyrazol-4-yl)-N-(2-methyl-5-(2-(3-methylmorpholino)acetamido)pyridin-3-yl)pyrazolo[5,1-b]thiazole-7-carboxamide] | 1 nM
Cc1ncc(NC(=O)CN2CCO[C@@H](C)C2)cc1NC(=O)c1cnn2cc(-c3cnn(C)c3)sc12 [Example 64, (S)-2-(1-methyl-1H-pyrazol-4-yl)-N-(2-methyl-5-(2-(2-methylmorpholino)acetamido)pyridin-3-yl)pyrazolo[5,1-b]thiazole-7-carboxamide] | 0.4 nM
Cc1ncc(NC(=O)CN2[C@H](C)COC[C@H]2C)cc1NC(=O)c1cnn2cc(-c3cnn(C)c3)sc12 [Example 51, N-(5-(2-((3R,5R)-3,5-dimethylmorpholino)acetamido)-2-methylpyridin-3-yl)-2-(1-methyl-1H-pyrazol-4-yl)pyrazolo[5,1-b]thiazole-7-carboxamide] | 0.4 nM
Cc1ncc(NC(=O)CN2CCOC(C)(C)C2)cc1NC(=O)c1cnn2cc(-c3cnn(C)c3)sc12 [Example 67, N-(5-(2-(2,2-dimethylmorpholino)acetamido)-2-methylpyridin-3-yl)-2-(1-methyl-1H-pyrazol-4-yl)pyrazolo[5,1-b]thiazole-7-carboxamide] | 1 nM
Cc1ncc(NC(=O)CN2CC3CC(C2)O3)cc1NC(=O)c1cnn2cc(-c3cnn(C)c3)sc12 [Example 45, N-(5-(2-(6-oxa-3-azabicyclo[3.1.1]heptan-3-yl)acetamido)-2-methylpyridin-3-yl)-2-(1-methyl-1H-pyrazol-4-yl)pyrazolo[5,1-b]thiazole-7-carboxamide] | 1 nM
COCCn1cc(-c2cn3ncc(C(=O)Nc4cc(NC(=O)CCN5C[C@@H]6CC[C@H]5C6)cnc4C)c3s2)cn1 [Example 92, N-(5-(3-((1S,4R)-2-azabicyclo[2.2.1]heptan-2-yl)propanamido)-2-methylpyridin-3-yl)-2-(1-(2-methoxyethyl)-1H-pyrazol-4-yl)pyrazolo[5,1-b]thiazole-7-carboxamide] | 0.5 nM
Cc1ncc(NC(=O)CN2Cc3ncsc3C2)cc1NC(=O)c1cnn2cc(-c3cnn(C)c3)sc12 [Example 76, N-(5-(2-(4H-pyrrolo[3,4-d]thiazol-5 (6H)-yl)acetamido)-2-methylpyridin-3-yl)-2-(1-methyl-1H-pyrazol-4-yl)pyrazolo[5,1-b]thiazole-7-carboxamide] | 0.9 nM
COCCn1cc(-c2cn3ncc(C(=O)Nc4cc(NC(=O)CCN5CC(C)(C)C5)cnc4C)c3s2)cn1 [Example 93, N-(5-(3-(3,3-dimethylazetidin-1-yl)propanamido)-2-methylpyridin-3-yl)-2-(1-(2-methoxyethyl)-1H-pyrazol-4-yl)pyrazolo[5,1-b]thiazole-7-carboxamide] | 0.9 nM
Cc1ncc(NC(=O)CCN2CCCC2(C)C)cc1NC(=O)c1cnn2cc(-c3cnn(CCO)c3)sc12 [Example 88, N-(5-(3-(2,2-dimethylpyrrolidin-1-yl)propanamido)-2-methylpyridin-3-yl)-2-(1-(2-hydroxyethyl)-1H-pyrazol-4-yl)pyrazolo[5,1-b]thiazole-7-carboxamide] | 0.4 nM
COCCn1cc(-c2cn3ncc(C(=O)Nc4cc(NC(=O)C5(CN6CCCC6(C)C)CC5)cnc4C)c3s2)cn1 [Example 487, N-(5-(1-((2,2-dimethylpyrrolidin-1-yl)methyl)cyclopropane-carboxamido)-2-methylpyridin-3-yl)-2-(1-(2-methoxyethyl)-1H-pyrazol-4-yl)pyrazolo[5,1-b]thiazole-7-carboxamide] | 7.7 nM
COCC1CCCN1CC(=O)Nc1cnc(C)c(NC(=O)c2cnn3cc(-c4cnn(C)c4)sc23)c1 (stereo not drawn) [Example 79, N-(5-(2-(2-(methoxymethyl)pyrrolidin-1-yl)acetamido)-2-methylpyridin-3-yl)-2-(1-methyl-1H-pyrazol-4-yl)pyrazolo[5,1-b]thiazole-7-carboxamide] | 0.8 nM
Cc1ncc(NC(=O)CCN2CCCC2(C)C)cc1NC(=O)c1cnn2cc(-c3cnn(C)c3)sc12 [Example 42, N-(5-(3-(2,2-dimethylpyrrolidin-1-yl)propanamido)-2-methyl-pyridin-3-yl)-2-(1-methyl-1H-pyrazol-4-yl)pyrazolo[5,1-b]thiazole-7-carboxamide] | 0.28 nM
Cc1ncc(NC(=O)CN2CCOCC23CC3)cc1NC(=O)c1cnn2cc(-c3cnn(C)c3)sc12 [Example 47, N-(5-(2-(7-oxa-4-azaspiro[2.5]octan-4-yl)acetamido)-2-methylpyridin-3-yl)-2-(1-methyl-1H-pyrazol-4-yl)pyrazolo[5,1-b]thiazole-7-carboxamide] | 0.9 nM

Reference: patent publication US20240109917A1 (ACTELION PHARMACEUTICALS LTD, priority 2020, published 2024)
